Data published in patent US4088772A, “Methanodibenzocycloheptapyrroles” (E. I. Du Pont de Nemours and Company, priority 1975, dated 1978).
Structures can show the parent of a compound that is named as a salt. Where two headings read alike, the source gives them in different places.

How the values were obtained:
female white mice = assay: animal or person; settings: Mus musculus, po
Procedure: (§1) Groups of five Carworth CF1 S female mice, 16-20 g each, were fasted 16-22 hours before use. The mice were put in opaque plastic "shoe-box" cages 15-30 min. before injection, and then treated orally with 4, 12, 36, 108 and 324 mg/kg of the compound to be tested as a 13 mg/ml solution in 1% aqueous distilled water solution of methylcellulose (Methocel®). Each dose was given in a standard volume of 0.45 ml. Observations were made at 0.5, 2 and 24 hours after dosing. ED50 values were calculated for each parameter including death (LD50). The ED50 and LD50 values are the doses at which 50% of the naimals would be expected to respond.
(§2) The mouse is placed on a stainless steel wire mesh screen (8 × 12 inches, 3 mesh per inch, 1/4 inch mesh openings) "shoe-box" lid (1 inch high) and is observed for normal activities, such as nose movements, head movements with apparent visual examination of the area, and/or walking around on the screen. Absence of or marked depression of these activities for 5 seconds constitutes loss of exploratory activity.
(§3) The mouse is picked up by the tail and placed on the screen with its head facing the observer. Bilateral eyelid closure of 50% or more two seconds after placement is considered ptosis.
(§4) The mouse is placed with its front paws on the edge of a stainless steel "shoe-box" cover, 1 inch high, covered with adhesive tape. Failure to remove both paws from the cover's edge within 5 seconds constitutes catatonia.
(§5) The observer gently strokes the abdominal musculature of the mouse with thumb and forefinger. Flaccidity (or rarely, tenseness) is recorded.
(§6) The mouse is gently swung by the tail toward a horizontal 12 gauge wire tautly stretched 25 cm above the bench. After the mouse grasps the wire with its forepaws, its posterior end is held directly below the wire. A normal mouse grasps the wire with its forepaws and immediately lifts its hind limbs to the wire. Failure to grasp the wire with the forepaws in both trials constitutes loss of the grip reflex; failure to lift the hind limbs to grasp the wire with at least one hind paw within 5 seconds constitutes loss of the lift reflex.
(§7) The mouse is placed on the bar 10-20 cm horizontally and 9 cm vertically from a Galton whistle adjusted for 13 kc (5 mm on the whistle scale) and is subjected to several short bursts of sound.
(§8) An effective tranquilizer should induce little or no tremor response. […] Tremors include fine or coarse and intermittent or continuous tremors.

in vivo = settings: mouse, in vivo, po
Procedure: as §1, §2, §3, §4, §5, §6, §7, §8

[1] = tested on: phenylquinone-induced writhing; assay: Phenylquinone writhing test (analgesia); assay type: in vivo, mouse (Carworth CF1 S female); settings: Mus musculus
Description: This mouse test is predictive of analgesic response in humans. [E. Siegmund, R. Cadmus and G. Lee, Proc. Soc.
ED50 values were obtained graphically from the data.

[2] = read-out: Catatonia ED50, Table III, oral, mice
[3] = read-out: Exploratory Loss Visual ED50, Table III, oral, mice
[4] = read-out: Muscle Tone ED50, Table III, oral, mice
[5] = read-out: Ptosis ED50, Table III, oral, mice
[6] = read-out: Reflexes Grip ED50, Table III, oral, mice
[7] = read-out: Reflexes Lift ED50, Table III, oral, mice
[8] = read-out: Reflexes Pinna ED50, Table III, oral, mice
[9] = read-out: Catatonia ED50, Table 1, oral, mice
[10] = read-out: Exploratory Loss Visual ED50, Table 1, oral, mice
[11] = read-out: Muscle Tone ED50, Table 1, oral, mice
[12] = read-out: Reflexes Grip ED50, Table 1, oral, mice
[13] = read-out: Reflexes Lift ED50, Table 1, oral, mice
[14] = read-out: Reflexes Pinna ED50, Table 1, oral, mice
[15] = read-out: Ptosis ED50, Table 1, oral, mice

Structure (SMILES) | ED50 (female white mice; [2]) | ED50 (female white mice; [3]) | ED50 (female white mice; [4]) | ED50 (female white mice; [5]) | ED50 (female white mice; [6]) | ED50 (female white mice; [7]) | ED50 (female white mice; [8]) | LD50 at 24 h (in vivo) | ED50 ([1]; po, Table III, mice) | ED50 (female white mice; [9]) | ED50 (female white mice; [10]) | ED50 (female white mice; [11]) | ED50 (female white mice; [12]) | ED50 (female white mice; [13]) | ED50 (female white mice; [14]) | ED50 (in vivo) | ED50 ([1]; po, Table 1, mice) | ED50 (female white mice; [15]) | also measured
Oc1ccc2c(c1)[C@]13C[C@H]2c2ccccc2[C@H]1CN(CC1CCCC1)C3 (relative stereo) [Example 68, 5-Hydroxy-2-cyclopentylmethyl-2,3,8,12b-tetrahydro-1H-3a,8-methanodibenzo[3,4:6,7]cyclohepta[1,2-c]pyrrole Hydrochloride] | 20 mg/kg | 12 mg/kg | 20 mg/kg | 12 mg/kg | > 324 mg/kg | 60 mg/kg | 36 mg/kg | > 324 mg/kg | 19 mg/kg | – | – | – | – | – | – | – | – | – | –
Clc1ccc2c(c1)[C@]13C[C@H]2c2ccccc2[C@H]1CN(CC1CCCC1)C3 (relative stereo) [Example 76, 5-Chloro-2-cyclopentylmethyl-2,3,8,12b-tetrahydro-1H-3a,8-methanodibezno[3,4:6,7]cyclohepta[1,2-c]pyrrole Hydrochloride] | 12 mg/kg | 7 mg/kg | 12 mg/kg | 7 mg/kg | > 324 mg/kg | 20 mg/kg | 20 mg/kg | 300 mg/kg | < 130 mg/kg | – | – | – | – | – | – | – | – | – | –
c1ccc2c(c1)C1CC3(CN(CCC4CCCC4)CC23)c2ccccc21 (centres unmarked) [Example 22, 2-(2-Cyclopentylethyl)-2,3,8,12b-tetrahydro-1H-3a,8-methanodibenzo[3,4:6,7]cyclohepta[1,2-c]pyrrole] | – | – | – | – | – | – | – | > 324 mg/kg | – | 18 mg/kg | 32 mg/kg | 3.6 mg/kg | 265 mg/kg | 17 mg/kg | 11 mg/kg | > 324 mg/kg | 10 mg/kg | – | ED50 (female white mice; read-out: Ptosis ED50, Table 1, Extrapolated value): 3 mg/kg
ON=Cc1ccc2c(c1)[C@]13C[C@H]2c2ccccc2[C@H]1CN(CC1CCCC1)C3 (relative stereo) [Example 83, 5-Formyl-2-cyclopentylmethyl-2,3,8,12b-tetrahydro-1H-3a,8-methanodibenzo[3,4:6,7]cyclohepta[1,2-c]pyrrole Oxime Hydrochloride] | 36 mg/kg | 20 mg/kg | 36 mg/kg | 36 mg/kg | > 324 mg/kg | 60 mg/kg | 20 mg/kg | > 324 mg/kg | 2.7 mg/kg | – | – | – | – | – | – | – | – | – | –
c1ccc2c(c1)[C@@H]1C[C@@]3(CN(C4CC4)C[C@H]23)c2ccccc21 (relative stereo) [Example 46, 2-Cyclopropyl-2,3,8,12b-tetrahydro-1H-3a,8-methanodibenzo[3,4:6,7]cyclohepta[1,2-c]pyrrole] | – | – | – | – | – | – | – | > 324 mg/kg | – | 200 mg/kg | 200 mg/kg | 200 mg/kg | 300 mg/kg | 200 mg/kg | 300 mg/kg | – | – | 60 mg/kg | ED50 (in vivo; Tremors ED50, Table 1, mice): > 324 mg/kg; ED50 ([1]; Table 1, oral, mice): 90 mg/kg
C1=C[C@@H]2C[C@H]1C[C@@H]2CN1C[C@@H]2c3ccccc3[C@@H]3C[C@@]2(C1)c1ccccc13 (relative stereo) [Example 38, 2-(2-Endo-bicyclo[2.2.1]hept-5-enylmethyl)-2,3,8,12b-tetrahydro-1H-3a,8-methanodibenzo[3,4:6,7]cyclohepta[1,2-c]pyrrole] | – | – | – | – | – | – | – | > 324 mg/kg | – | 100 mg/kg | 200 mg/kg | 200 mg/kg | > 324 mg/kg | 200 mg/kg | > 324 mg/kg | > 324 mg/kg | 31 mg/kg | 60 mg/kg | –
c1ccc2c(c1)C1CC3(CN(CC4CCCCCC4)CC23)c2ccccc21 (centres unmarked) [Example 32, 2-Cycloheptylmethyl-2,3,8,12b-tetrahydro-1H-3a,8-methanodibenzo[3,4:6,7]cyclohepta[1,2-c]pyrrole] | – | – | – | – | – | – | – | > 324 mg/kg | – | 12 mg/kg | 7 mg/kg | 36 mg/kg | 200 mg/kg | 20 mg/kg | 60 mg/kg | > 324 mg/kg | 2.9 mg/kg | < 4 mg/kg | –
c1ccc2c(c1)[C@@H]1C[C@@]3(CN(CC4CCCC4)C[C@H]23)c2ccccc21 (relative stereo) [Cyclopentylmethyl (free base), 2-Cyclopentylmethyl-2,3,8,12b-tetrahydro-1H-3a,8-methanodibenzo[3,4:6,7]cyclohepta[1,2-c]pyrrole] | – | – | – | – | – | – | – | > 324 mg/kg | – | 7 mg/kg | < 3 mg/kg | < 3 mg/kg | 260 mg/kg | 4.5 mg/kg | < 3 mg/kg | – | < 130 mg/kg | < 3 mg/kg | –
c1ccc2c(c1)C1CC3(CN(CCCCC4CCCCC4)CC23)c2ccccc21 (centres unmarked) [Example 31, 2-(4-Cyclohexylbutyl)-2,3,8,12b-tetrahydro-1H-3a,8-methanodibenzo[3,4:6,7]cyclohepta[1,2-c]pyrrole] | – | – | – | – | – | – | – | > 324 mg/kg | – | 26 mg/kg | 21 mg/kg | 24 mg/kg | > 324 mg/kg | 37 mg/kg | 32 mg/kg | > 324 mg/kg | 14 mg/kg | 17 mg/kg | –
[N-]=[N+]=Nc1ccc2c(c1)[C@]13C[C@H]2c2ccccc2[C@H]1CN(CC1CCCC1)C3 (relative stereo) [Example 82, 5-Azido-2-cyclopentylmethyl-2,3,8,12b-tetrahydro-1H-3a,8-methanodibenzo[3,4:6,7]cyclohepta[1,2-c]-pyrrole] | 60 mg/kg | 7 mg/kg | 20 mg/kg | 7 mg/kg | > 324 mg/kg | 60 mg/kg | 36 mg/kg | > 324 mg/kg | < 130 mg/kg | – | – | – | – | – | – | – | – | – | –
CC1CCCC1CN1C[C@@H]2c3ccccc3[C@@H]3C[C@@]2(C1)c1ccccc13 (some centres unmarked) [Example 51, 2-(2-Methylcyclopentylmethyl)-2,3,8,12b-tetrahydro-1H-3a,8-methanodibenzo[3,4:6,7]cyclohepta[1,2-c]pyrrole] | – | – | – | – | – | – | – | > 324 mg/kg | – | 60 mg/kg | 100 mg/kg | 60 mg/kg | 300 mg/kg | 60 mg/kg | 36 mg/kg | > 324 mg/kg | 10 mg/kg | 36 mg/kg | –
c1ccc(OCCN2C[C@@H]3c4ccccc4[C@@H]4C[C@@]3(C2)c2ccccc24)cc1 (relative stereo) [Example 40, 2-(2-Phenoxyethyl)-2,3,8,12b-tetrahydro-1H-3a,8-methanodibenzo[3,4:6,7]cyclohepta[1,2-c]pyrrole] | – | – | – | – | – | – | – | > 324 mg/kg | – | 12 mg/kg | 60 mg/kg | 20 mg/kg | > 324 mg/kg | 20 mg/kg | 12 mg/kg | > 324 mg/kg | 5.3 mg/kg | 7 mg/kg | –
C1=CCC(CN2CC3c4ccccc4C4CC3(C2)c2ccccc24)=CC1 (centres unmarked) [Example 28, 2-(1,4-Cyclohexadienylmethyl)-2,3,8,12b-tetrahydro-1H-3a,8-methanodibenzo[3,4:6,7]cyclohepta[1,2-c]pyrrole] | – | – | – | – | – | – | – | > 324 mg/kg | – | 24 mg/kg | 29 mg/kg | 37 mg/kg | > 324 mg/kg | 57 mg/kg | 32 mg/kg | > 324 mg/kg | 8.6 mg/kg | 17 mg/kg | –
N#Cc1ccc2c(c1)[C@]13C[C@H]2c2ccccc2[C@H]1CN(CC1CCCC1)C3 (relative stereo) [Example 85, 5-Cyano-2-cyclopentylmethyl-2,3,8,12b-tetrahydro-1H-3a,8-methanodibenzo[3,4:6,7]cyclohepta[1,2-c]-pyrrole Hydrochloride] | 15 mg/kg | 4.4 mg/kg | 15 mg/kg | 4.4 mg/kg | > 324 mg/kg | 17 mg/kg | 9.7 mg/kg | 300 mg/kg | 1.7 mg/kg | – | – | – | – | – | – | – | – | – | –
